Test results: a melting point compilation (Tetko et al.; mined from patent text by program, amines drawn as free bases though some values may be those of a salt)

SMILES | melting point [°C]
Cc1ccc(-c2nc3cccnc3n2CC(=O)N(C)C)s1 | 193 to 197
CCCCNC(=O)NS(=O)(=O)Cc1c(C(=O)OC)cccc1S(=O)(=O)N(C)C | 118 to 134
Cn1cc(C=O)cc1C(=O)OC(C)(C)C | 92
OCC(CO)n1nnnc1S | 138
Nc1c(Cl)cc(C(O)CNCCCCCC(=O)OCCOc2ccccc2)cc1Cl (stereo not given) | 46 to 47
CCOC(=O)c1cn(C)c2c(=O)c3cc(Cl)ccc3oc2c1=O | 295 to 297
C=CS(=O)(=O)C(C(=O)NC)S(=O)(=O)C=C | 143 to 147
Cc1cc(Nc2nccc(-c3sc(N)nc3C)n2)ccc1N1CCCCC1 | 221 to 223
Cn1c(C(F)(F)F)cc(=O)n(-c2ccc(Cl)c3nc(N4CCCCC4)sc23)c1=O | 102 to 104
CCCCCCCCCC(=O)Nc1cc(C(=O)N2CCCCC2CO)c2cc[nH]c2c1 (stereo not given) | 126 to 129
CN(C)Cc1nnc2n1-c1ccc(Br)cc1C(c1ccccn1)=NC2 | 163 to 164
CCOC(=O)c1cc2c(O)nncc2nc1NC(C)CC (stereo not given) | 184 to 185
CNc1cc(NC)cc(C(O)CS(C)(=O)=O)c1 (stereo not given) | 106
CCOc1cc(Cc2cnc(N)nc2N)cc2c1OC1(C=C2Br)CCC1 | 213 to 214
COC(=O)c1ccc(-c2nnc(C)o2)s1 | 142 to 145
O=Cc1c(Br)ncn1Cc1cc2c(cc1Cl)OCO2 | 136

SMILES | melting point [°C]
COC(=O)[C@H](CSC(=O)[C@@H](C)c1ccc(CC(C)C)cc1)NC(C)=O | 75 to 77
CCOC(=O)c1ccc(CCN(C)CCCC(C#N)(C(=O)OCC)c2ccc(OC)c(OC)c2)cc1 (stereo not given) | 83 to 84
COCc1cc(O)n[nH]1 | 123 to 125
COC(=O)c1c(F)cc(O)cc1F | 178 to 180
CC(C)(C)OC(=O)COc1ccc(C(=O)NNC(=O)c2ccc(CNC(=O)OC(C)(C)C)cc2)cc1OCC(=O)OC(C)(C)C | 156 to 158
COc1ccc(CSc2nnc(-c3ccc4ncsc4c3)o2)cc1C#N | 181 to 182
CCOC(=O)C(NC=O)C(=O)Nc1ccc(Br)cc1C (stereo not given) | 174 to 176
CCc1[nH]n(C2CCCC2)c2nc(=S)[nH]c(=O)c1-2 | 248 to 250
Oc1cc2ccccn2n1 | 127 to 128
CC(=O)c1cc2c(c(O)c1Cl)C(C)(C)CC2(C)C | 78 to 80
O=C1CCCN1C(=O)c1cccnc1 | 98 to 100
CCC(=CC=C(C#N)C#N)NCCO | 88 to 90
CCC(O)c1nc2c(C(F)(F)F)cccc2c(O)c1C(=O)Nc1nccs1 (stereo not given) | 180
O=C1Nc2sccc2C(=O)N2CC[C@@H]12 | 272 to 274
COC(=O)c1ccc(C(=O)NC(C)C)cc1S(=O)(=O)NC(C)(C)C | 159 to 160

The remaining lines, values ahead:

melting point [°C] | SMILES
163 to 165 | Nc1ccc(C(=O)NNC(=O)CCCCN2CCC(Cc3ccccc3)CC2)cc1
113 to 120 | C(=C\c1cc(/C=C/c2ccccc2OCc2ccccn2)[nH]n1)/c1ccc2cc[nH]c2c1
163 to 165 | CC(C)c1ccc2c(c1)CCN2C(=O)Nc1cccnc1
262 | N#Cc1c(N2CCN(C(=O)c3cccs3)CC2)c2cc(F)cnc2n(CC(=O)c2ccccc2)c1=O
153 to 154 | Cc1c(Cc2ccccc2)c2c(c(C)c1NC(=O)CC(C)(C)C)C(c1ccc(C(C)C)cc1)CO2 (stereo not given)
216 to 218 | Oc1ccc(-c2cc3cc(Cl)ccc3o2)cc1
133 to 134 | O=S(=O)(Oc1ccc(C(c2ccc(OS(=O)(=O)c3ccccc3)cc2)(C(F)(F)F)C(F)(F)F)cc1)c1ccccc1
116 | COCCN(C)C(=O)COc1cc(-c2ccc(C)cc2)nc2cccc(C(F)(F)F)c12
119 to 120 | COc1ccc(O[C@H](C)C(=O)O)c(C(=O)c2ccc(OCc3nc(-c4ccccc4)oc3C)cc2)c1
130 to 131 | C=C1N(c2cccc3ccccc23)C(=O)OC12CCN(Cc1ccccc1)CC2
105 to 107 | COc1cccc(C(=O)Nc2ccc(OCCN3CCOCC3)c3ccccc23)c1
193 | O=c1c(O)c(-c2ccccc2-c2ccc(CNc3nc(C(F)(F)F)nc4c3CCCC4)cc2)c1=O
256 to 257 | COc1ccc2c(c1)CCc1c(C(F)F)nn(-c3ccc(S(N)(=O)=O)cc3)c1-2
96 to 98 | COCCN(C)c1nccc(Oc2ccc(NC(=O)c3cc(F)cc(N4CCOCC4)c3)c3ccccc23)n1
65 | O=C(O)Cc1ccc(OCCNC(=O)[C@@H]2Cc3ccccc3N2S(=O)(=O)c2ccc(Oc3ccc(F)cc3)cc2)cc1
106 to 108 | CCOCCn1cc(C2CCN(CCOc3cc(OC)ccc3C(=O)O)CC2)c2cccnc21
206 | CCN(c1ccc(C(F)(F)F)cc1)C1CCN(c2ccc(OC[C@H]3CCn4cc([N+](=O)[O-])nc4O3)cc2)CC1
245 to 248 | O=C(Nc1cccc(F)c1)NC1CCN(S(=O)(=O)c2ccc(Cl)cc2)CC1
82 to 83 | C#CC1(Oc2ccc(F)cc2[N+](=O)[O-])CCN(C(=O)Oc2ccccc2)CC1
154 to 157 | CN(C)C1CCN(S(=O)(=O)c2cc(C#N)ccc2Oc2cc(F)ccc2F)CC1

melting point [°C] | SMILES
220 to 222 | CC(=O)Nc1cccc(S(=O)(=O)c2cc(O)c(O)cc2C)c1
136 to 137 | Cc1ccccc1C(CCC(=O)O)Oc1cc(OCc2cccc(CCC(=O)O)c2)ccc1C#N (racemic)
140 to 142 | CCCCc1nn(-c2ccccc2Cl)c(=O)n1Cc1ccc(-c2ccccc2S(N)(=O)=O)cc1
116 to 118 | CC(=O)c1nc2cccc(Oc3ccccc3)c2cc1OCc1ccccc1
160 | CS(=O)(=O)c1ccc(C(O)c2cccc3ccccc23)cc1 (stereo not given)
135 to 136 | CN1C(=O)C2(COc3cc4c(cc32)OCCO4)c2c(C(=O)NC3CCCC3)cccc21 (stereo not given)
198 to 200 | Cc1ccccc1C(=O)Nc1ccc(C(=O)N2CCCC(N)c3ccccc32)cc1 (stereo not given)
100 to 102 | CCOC(=O)Cc1ccc(NC(=O)C(NS(=O)(=O)c2ccc(Cl)cc2)C(C)C)cc1 (racemic)
116 to 118 | N#CC1(CCc2ccccc2)CCCCCN1C(=O)c1ccccc1 (stereo not given)
114 to 116 | CCOC(=O)CCC1OC(=O)C(O)=C1c1ccccc1 (stereo not given)
123 to 124 | CC(C)CCN1N=C(c2ccc(F)cc2)c2cc(Cl)ccc2CS1(=O)=O
135 to 137 | COc1ccc(C[C@@H](CO)NC(=O)c2ccnc(-n3nc(-c4cccnc4)c4ccccc4c3=O)c2)cc1OC
161 | COC(CNC(=S)N1CCN(c2ccc(O)cc2)CC1)OC
136 to 145 | Cc1ccnc(NC(c2ccc([N+](=O)[O-])cc2)c2ccccc2O)n1 (stereo not given)
146 to 147 | O=C(O)c1ccc(NCCCOc2cccc3ccccc23)cc1
357 | Cc1ccc2c(c1)C(=O)c1ccc(C(=O)O)cc1S2(=O)=O
57 to 59 | CC(C)C1=C(Cl)C(=O)c2ccccc2C1=O
218 to 219 | O=C(Nc1cccnn1)N1CCN(c2nccc(-c3ccc(F)c(F)c3)n2)CC1
108 to 109 | Cc1ccc(S(=O)(=O)OC[C@H]2CC[C@H](c3ccccc3)CC2)cc1
